“And” between values parts separate entries of the source, which are not always exact repeats. Equal values may be shown once.

For this experiment, the target named is T1, PfHT (Plasmodium falciparum, UniProt Q7KWJ5).
T1 sequence (Q7KWJ5 1-504): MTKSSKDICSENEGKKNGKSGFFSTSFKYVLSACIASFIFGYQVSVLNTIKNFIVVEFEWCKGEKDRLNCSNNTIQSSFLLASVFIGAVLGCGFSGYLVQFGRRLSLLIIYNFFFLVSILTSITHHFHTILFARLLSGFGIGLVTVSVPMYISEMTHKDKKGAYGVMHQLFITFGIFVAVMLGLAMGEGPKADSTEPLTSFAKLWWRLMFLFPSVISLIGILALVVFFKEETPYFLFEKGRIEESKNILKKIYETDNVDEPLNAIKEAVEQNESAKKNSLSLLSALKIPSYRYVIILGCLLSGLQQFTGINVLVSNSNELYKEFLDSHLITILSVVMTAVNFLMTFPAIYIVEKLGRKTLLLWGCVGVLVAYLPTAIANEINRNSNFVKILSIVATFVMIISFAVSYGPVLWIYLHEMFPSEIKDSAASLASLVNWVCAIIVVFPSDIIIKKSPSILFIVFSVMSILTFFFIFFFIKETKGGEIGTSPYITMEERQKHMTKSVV
The experiment is described as follows: ATB-BMPA photolabel binding to PfHT liposomes. Also on record: expressed in transfected cells. On the procedure:
WU-1 inhibitor was added to PfHT liposomes for 10 min at room temperature. Samples (final volume, 110 μl) were then incubated for 10 min at room temperature with biotinylated ATB-BMPA (50 μM final concentration) and then placed on ice prior to UV irradiation. Reactions were transferred to a 24-well low protein retention culture dish (Costar, Corning, NY) and then irradiated at room temperature 5 cm from a Green Spot UV lamp for 1 min (30 sec of light followed by 30 sec of darkness followed by 30 sec of light). Unbound ATB-BMPA was removed using a 0.5 ml Zeba Spin Column (Thermo Scientific, Rockford, IL). Samples were analyzed by immunoblot analysis using a fluorescently labeled streptavidin (LI-COR Biosciences, Lincoln, NE). The amount of PfHT protein in each sample was quantified by SDS-PAGE stained with Blue BANDIT protein stain using a BSA standard curve. The streptavidin signal was then normalized to the amount of PfHT protein.

With `Cc1ccc(S(=O)(=O)CCNC(=O)c2c(-c3c(Cl)cccc3Cl)noc2C)cc1` [WU-1, 3-(2,6-dichlorophenyl)-5-methyl-N-[2-(4-methylbenzenesulfonyl)ethyl]-1,2-oxazole-4-carboxamide], the “decrease of biotinylated ATB-BMPA photolabel binding to PfHT” value (10 μM WU-1, PfHT liposomes) is ~ 60%. In addition, under “10µM WU-1, individual samples”, the “ATB-BMPA labeling, Strep signal” value is 15.08 and 15.68 and 15.48; the “ATB-BMPA labeling, Strep/Protein” value was 1.91 and 1.96 and 1.99; the “ATB-BMPA labeling, Strep/Protein normalized to 100% Control” value was 40.83 and 41.46. The “ATB-BMPA labeling, normalized Ave” value (10µM WU-1, mean of 3) was 40.69. The remaining activity at 10 µM (read-out: ATB-BMPA labeling, Strep/Protein normalized to 100% Control, 10µM WU-1, individual samples) was found to be 39.8%.
